Source: paper PMC10175918 (Communications Biology, 2023)
Read-outs that look alike come from different tables or passages of the source.

What was measured:
Assay in all cases: TGFα-shedding assay-based GPCR screening with chimeric Gα subunit proteins
Format in all cases: cell-based
348 GPCRs [1] = target: T1, 348 GPCRs (Homo sapiens, UniProt Q96AM1); details: 10µM, Favipiravir 100μM
T1 construct: expressed in transfected cells; host or cells: HEK293A

348 GPCRs [2] = target: T2, 348 GPCRs (Homo sapiens, UniProt Q9NS75)
T2 construct: expressed in transfected cells; host or cells: HEK293A
T2 sequence (Q9NS75 1-346): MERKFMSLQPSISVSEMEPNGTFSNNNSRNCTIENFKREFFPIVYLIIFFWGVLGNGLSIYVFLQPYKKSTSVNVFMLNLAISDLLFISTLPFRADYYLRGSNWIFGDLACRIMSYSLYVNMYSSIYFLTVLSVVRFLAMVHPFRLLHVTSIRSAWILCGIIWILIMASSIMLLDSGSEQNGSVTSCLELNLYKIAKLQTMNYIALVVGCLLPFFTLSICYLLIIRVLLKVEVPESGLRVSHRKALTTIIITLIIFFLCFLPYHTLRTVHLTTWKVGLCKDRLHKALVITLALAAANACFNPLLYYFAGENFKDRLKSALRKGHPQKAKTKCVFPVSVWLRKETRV

348 GPCRs [3] = target: T3, 348 GPCRs (Homo sapiens, UniProt Q96P66)
T3 construct: expressed in transfected cells; host or cells: HEK293A
T3 sequence (Q96P66 1-508): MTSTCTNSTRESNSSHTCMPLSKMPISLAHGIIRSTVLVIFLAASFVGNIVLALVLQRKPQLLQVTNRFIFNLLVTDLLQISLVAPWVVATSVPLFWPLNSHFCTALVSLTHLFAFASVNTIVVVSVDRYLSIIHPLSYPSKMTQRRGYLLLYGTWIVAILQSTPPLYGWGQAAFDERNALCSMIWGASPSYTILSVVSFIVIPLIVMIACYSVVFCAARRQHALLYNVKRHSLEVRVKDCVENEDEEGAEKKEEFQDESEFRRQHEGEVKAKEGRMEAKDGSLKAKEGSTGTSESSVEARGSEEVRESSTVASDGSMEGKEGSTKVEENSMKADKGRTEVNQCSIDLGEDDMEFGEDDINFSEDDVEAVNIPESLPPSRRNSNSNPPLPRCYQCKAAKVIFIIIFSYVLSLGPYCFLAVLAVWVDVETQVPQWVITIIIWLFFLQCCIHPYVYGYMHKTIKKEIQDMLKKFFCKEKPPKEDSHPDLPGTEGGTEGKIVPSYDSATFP

348 GPCRs [4] = target: T4, 348 GPCRs (Homo sapiens, UniProt Q99705)
T4 construct: expressed in transfected cells; host or cells: HEK293A
T4 sequence (Q99705 whole entry): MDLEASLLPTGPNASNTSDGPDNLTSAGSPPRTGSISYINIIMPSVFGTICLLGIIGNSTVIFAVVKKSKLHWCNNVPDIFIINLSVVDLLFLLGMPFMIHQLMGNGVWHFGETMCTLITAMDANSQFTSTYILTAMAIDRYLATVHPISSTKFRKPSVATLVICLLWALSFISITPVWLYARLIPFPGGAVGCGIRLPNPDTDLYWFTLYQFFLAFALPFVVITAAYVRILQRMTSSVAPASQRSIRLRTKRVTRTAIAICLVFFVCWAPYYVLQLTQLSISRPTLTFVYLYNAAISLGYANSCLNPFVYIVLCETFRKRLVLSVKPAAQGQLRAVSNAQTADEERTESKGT

348 GPCRs [5] = target: T5, 348 GPCRs (Homo sapiens, UniProt Q8NFJ5); details: 10µM, Favipiravir 100μM
T5 construct: expressed in transfected cells; host or cells: HEK293A
T5 sequence (Q8NFJ5 whole entry): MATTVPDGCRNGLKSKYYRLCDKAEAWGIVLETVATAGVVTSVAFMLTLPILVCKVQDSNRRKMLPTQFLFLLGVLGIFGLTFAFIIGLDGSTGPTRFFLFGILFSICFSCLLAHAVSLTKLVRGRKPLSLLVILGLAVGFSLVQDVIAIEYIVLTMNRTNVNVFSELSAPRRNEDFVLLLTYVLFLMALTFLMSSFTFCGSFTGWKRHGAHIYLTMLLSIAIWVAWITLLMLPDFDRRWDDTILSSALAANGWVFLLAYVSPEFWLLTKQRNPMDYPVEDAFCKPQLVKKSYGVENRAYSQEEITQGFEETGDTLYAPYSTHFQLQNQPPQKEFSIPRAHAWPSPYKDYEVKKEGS

348 GPCRs [6] = target: T6, 348 GPCRs (Homo sapiens, UniProt P59542); details: 10µM, Favipiravir 100μM
T6 construct: expressed in transfected cells; host or cells: HEK293A
T6 sequence (P59542 1-299): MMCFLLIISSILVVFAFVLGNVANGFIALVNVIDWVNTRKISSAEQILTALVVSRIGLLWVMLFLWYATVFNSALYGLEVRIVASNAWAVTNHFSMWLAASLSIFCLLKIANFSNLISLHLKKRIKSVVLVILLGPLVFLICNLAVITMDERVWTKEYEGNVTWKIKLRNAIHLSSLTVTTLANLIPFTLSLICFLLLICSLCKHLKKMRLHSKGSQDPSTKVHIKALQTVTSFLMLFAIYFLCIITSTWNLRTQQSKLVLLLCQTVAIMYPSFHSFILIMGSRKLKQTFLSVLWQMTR

348 GPCRs [7] = target: T7, 348 GPCRs (Homo sapiens, UniProt Q9NYW3); details: 10µM, Favipiravir 100μM
T7 construct: expressed in transfected cells; host or cells: HEK293A
T7 sequence (Q9NYW3 1-318): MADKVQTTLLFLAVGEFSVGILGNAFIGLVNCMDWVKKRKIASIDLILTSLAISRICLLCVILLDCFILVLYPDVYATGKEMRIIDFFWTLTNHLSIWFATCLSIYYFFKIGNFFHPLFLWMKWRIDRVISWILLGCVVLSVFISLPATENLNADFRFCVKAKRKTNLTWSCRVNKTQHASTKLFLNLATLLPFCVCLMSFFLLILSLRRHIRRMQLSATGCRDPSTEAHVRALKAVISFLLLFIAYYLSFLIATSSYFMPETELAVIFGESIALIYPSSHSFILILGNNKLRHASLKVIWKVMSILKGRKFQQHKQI

348 GPCRs [8] = target: T8, 348 GPCRs (Homo sapiens, UniProt P25024)
T8 construct: expressed in transfected cells; host or cells: HEK293A
T8 sequence (P25024 1-350): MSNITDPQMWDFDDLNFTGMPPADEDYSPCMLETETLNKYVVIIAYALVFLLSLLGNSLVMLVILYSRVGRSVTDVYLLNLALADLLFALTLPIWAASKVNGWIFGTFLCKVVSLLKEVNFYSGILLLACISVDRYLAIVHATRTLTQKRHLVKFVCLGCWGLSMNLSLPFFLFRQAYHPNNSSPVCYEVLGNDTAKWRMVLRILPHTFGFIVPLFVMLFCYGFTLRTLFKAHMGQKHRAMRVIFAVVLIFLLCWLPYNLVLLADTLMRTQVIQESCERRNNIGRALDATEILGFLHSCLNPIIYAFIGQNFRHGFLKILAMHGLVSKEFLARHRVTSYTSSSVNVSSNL

[9] = read-out: % GPCR activation compared to TPA, MRGF (MAS-related GPR, member F)
[10] = read-out: % GPCR activation compared to TPA, MRGPRF (MAS-related GPR, member F)
[11] = read-out: % GPCR activation compared to TPA, GPCR CYSLTR2 (cysteinyl leukotriene receptor 2)
[12] = read-out: % GPCR activation compared to TPA, GPCR GPR101 (G protein-coupled receptor 101)
[13] = read-out: % GPCR activation compared to TPA, GPCR MCHR1 (melanin concentrating hormone receptor 1)
[14] = read-out: % GPCR activation compared to TPA, GPRC5A (G protein-coupled receptor class C group 5 member A)
[15] = read-out: % GPCR activation compared to TPA, TAS2R19 (taste receptor, type 2, member 19)
[16] = read-out: % GPCR activation compared to TPA, TAS2R7 (taste receptor, type 2, member 7)
[17] = read-out: % GPCR activation compared to TPA, GPCR CXCR1 (chemokine (C-X-C motif) receptor 1)
[18] = MRGF (MAS-related GPR, member F), read-out: % GPCR activation compared to TPA
[19] = MRGPRF (MAS-related GPR, member F), read-out: % GPCR activation compared to TPA
[20] = GPCR CYSLTR2 (cysteinyl leukotriene receptor 2), read-out: % GPCR activation compared to TPA
[21] = GPCR GPR101 (G protein-coupled receptor 101), read-out: % GPCR activation compared to TPA
[22] = GPCR MCHR1 (melanin concentrating hormone receptor 1), read-out: % GPCR activation compared to TPA
[23] = GPRC5A (G protein-coupled receptor class C group 5 member A), read-out: % GPCR activation compared to TPA
[24] = TAS2R19 (taste receptor, type 2, member 19), read-out: % GPCR activation compared to TPA
[25] = TAS2R7 (taste receptor, type 2, member 7), read-out: % GPCR activation compared to TPA
[26] = GPCR CXCR1 (chemokine (C-X-C motif) receptor 1), read-out: % GPCR activation compared to TPA

T1 sequence (Q96AM1 whole entry): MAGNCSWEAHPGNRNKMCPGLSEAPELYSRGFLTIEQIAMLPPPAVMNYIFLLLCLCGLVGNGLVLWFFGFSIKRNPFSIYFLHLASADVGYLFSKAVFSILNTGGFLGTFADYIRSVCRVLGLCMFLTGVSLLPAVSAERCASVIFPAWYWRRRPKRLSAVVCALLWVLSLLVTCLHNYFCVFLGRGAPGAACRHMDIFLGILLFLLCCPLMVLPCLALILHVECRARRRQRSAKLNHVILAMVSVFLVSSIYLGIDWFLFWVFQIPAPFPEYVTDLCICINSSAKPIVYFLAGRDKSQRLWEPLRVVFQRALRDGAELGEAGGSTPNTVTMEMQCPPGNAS

Structure (SMILES)	activation at 100 µM (348 GPCRs [1]; [9])	activation at 100 µM (348 GPCRs [1]; [10])	activation at 10 µM (348 GPCRs [2]; [11])	activation at 10 µM (348 GPCRs [3]; [12])	activation at 10 µM (348 GPCRs [4]; [13])	activation at 100 µM (348 GPCRs [5]; [14])	activation at 100 µM (348 GPCRs [6]; [15])	activation at 10 µM (348 GPCRs [7]; [16])	activation at 10 µM (348 GPCRs [8]; [17])	activation at 100 µM (348 GPCRs [1]; [18])	activation at 100 µM (348 GPCRs [1]; [19])	activation at 10 µM (348 GPCRs [2]; [20])	activation at 10 µM (348 GPCRs [3]; [21])	activation at 10 µM (348 GPCRs [4]; [22])	activation at 100 µM (348 GPCRs [5]; [23])	activation at 100 µM (348 GPCRs [6]; [24])	activation at 10 µM (348 GPCRs [7]; [25])	activation at 10 µM (348 GPCRs [8]; [26])	also measured
CC(C)OC(=O)[C@H](C)N[P@](=O)(OC[C@H]1O[C@@H](n2ccc(=O)[nH]c2=O)[C@](C)(F)[C@@H]1O)Oc1ccccc1 [sofosbuvir]	-2.71%	-0.0367%	-0.91%	-3.4%	-4.22%	-9.13%	-0.561%	0.253%	-0.0928%	–	–	–	–	–	–	–	–	–	–
CC(C)C(=O)OC[C@H]1O[C@@H](n2ccc(NO)nc2=O)[C@H](O)[C@@H]1O [molnupiravir]	–	–	–	–	–	–	–	–	–	-3.54%	-0.471%	-0.187%	-0.865%	-2.69%	-5.54%	-0.811%	-0.399%	-2.06%	–
NC(=O)c1nc(F)cnc1O [favipiravir, 6-fluoro-3-hydroxy-2-pyrazinecarboxamide]	–	–	–	–	–	–	–	–	–	0.745%	-1.13%	–	–	–	8.99%	-1.32%	-0.16%	–	activation at 100 µM (348 GPCRs [2]; GPCR CYSLTR2 (cysteinyl leukotriene receptor 2), 100μM, read-out: % GPCR activation compared to TPA): -1.33%; activation at 100 µM (348 GPCRs [3]; GPCR GPR101 (G protein-coupled receptor 101), 100μM, read-out: % GPCR activation compared to TPA): -0.717%; activation at 100 µM (348 GPCRs [4]; GPCR MCHR1 (melanin concentrating hormone receptor 1), 100μM, read-out: % GPCR activation compared to TPA): -2.9%; activation at 100 µM (348 GPCRs [8]; GPCR CXCR1 (chemokine (C-X-C motif) receptor 1), 100μM, read-out: % GPCR activation compared to TPA): -1.26%
N#C[C@@]1(c2ccc3c(N)ncnn23)O[C@H](CO)[C@@H](O)[C@H]1O [GS441524]	–	–	–	–	–	–	–	–	–	4.76%	-0.751%	-1.21%	-0.779%	-1.77%	6.76%	-0.28%	-0.22%	-1.09%	–
CCC(CC)COC(=O)[C@H](C)N[P@](=O)(OC[C@H]1O[C@@](C#N)(c2ccc3c(N)ncnn23)[C@H](O)[C@@H]1O)Oc1ccccc1 [remdesivir]	0.574%	-0.326%	-0.408%	1.7%	-1.97%	9.99%	0.523%	0.159%	-0.838%	–	–	–	–	–	–	–	–	–	–
